According to ChEMBL document CHEMBL4342421, “Current scenario of tetrazole hybrids for antibacterial activity” (Eur J Med Chem, 2019):
Values after ≈ are worked out from the molar mass of the structure shown.

How the values were obtained:
[1] = test system: Escherichia coli; test: Antimicrobial activity against Escherichia coli; format: functional
[2] = test system: Pseudomonas aeruginosa; test: Antimicrobial activity against Pseudomonas aeruginosa; format: functional
[3] = test system: Staphylococcus aureus; test: Antimicrobial activity against Staphylococcus aureus; format: functional
[4] = test system: Candida albicans; test: Antifungal activity against Candida albicans; format: functional
[5] = test system: Staphylococcus aureus; test: Antibacterial activity against methicillin resistant Staphylococcus aureus N315 after 24 hrs by two-fold broth serial dilution method; format: functional; conditions: N315, 24 h
[6] = test system: Bacillus subtilis; test: Antibacterial activity against Bacillus subtilis ATCC 21216 after 24 hrs by two-fold broth serial dilution method; format: functional; conditions: ATCC 21216, 24 h
[7] = test system: Micrococcus luteus; test: Antibacterial activity against Micrococcus luteus ATCC 4698 after 24 hrs by two-fold broth serial dilution method; format: functional; conditions: ATCC 4698, 24 h
[8] = test system: Escherichia coli; test: Antimicrobial activity against Escherichia coli JM 109 after 24 hrs by two-fold broth serial dilution method; format: functional; conditions: JM 109, 24 h
[9] = test system: Pseudomonas aeruginosa; test: Antimicrobial activity against Pseudomonas aeruginosa ATCC 27853 after 24 hrs by two-fold broth serial dilution method; format: functional; conditions: ATCC 27853, 24 h
[10] = test system: Shigella dysenteriae; test: Antimicrobial activity against Shigella dysenteriae after 24 hrs by two-fold broth serial dilution method; format: functional
[11] = test system: Candida albicans; test: Antifungal activity against Candida albicans ATCC 76615 after 24 hrs; format: functional; conditions: ATCC 76615, 24 h
[12] = test system: Cyberlindnera jadinii; test: Antifungal activity against Candida utilis after 24 hrs; format: functional; conditions: Williopsis jadinii
[13] = test system: Aspergillus flavus; test: Antifungal activity against Aspergillus flavus after 24 hrs; format: functional
[14] = test system: Saccharomyces cerevisiae; test: Antifungal activity against Saccharomyces cerevisiae after 24 hrs; format: functional
[15] = test system: Pichia norvegensis; test: Antifungal activity against Candida mycoderma after 24 hrs; format: functional
[16] = test system: Aspergillus niger; test: Antifungal activity against Aspergillus niger; format: functional
[17] = test system: Bacillus cereus; test: Antimicrobial activity against Bacillus cereus; format: functional
[18] = test system: Staphylococcus aureus; test: Antimicrobial activity against Staphylococcus aureus assessed as zone of inhibition at 250 ug/ml; format: functional; conditions: read-out: IZ
[19] = test system: Bacillus cereus; test: Antimicrobial activity against Bacillus cereus assessed as zone of inhibition at 250 ug/ml; format: functional; conditions: read-out: IZ
[20] = test system: Escherichia coli; test: Antimicrobial activity against Escherichia coli assessed as zone of inhibition at 250 ug/ml; format: functional; conditions: read-out: IZ
[21] = test system: Pseudomonas aeruginosa; test: Antimicrobial activity against Pseudomonas aeruginosa assessed as zone of inhibition at 250 ug/ml; format: functional; conditions: read-out: IZ
[22] = test system: Candida albicans; test: Antifungal activity against Candida albicans assessed as zone of inhibition at 250 ug/ml; format: functional; conditions: read-out: IZ
[23] = test system: Aspergillus niger; test: Antifungal activity against Aspergillus niger assessed as zone of inhibition at 250 ug/ml; format: functional; conditions: read-out: IZ
[24] = test system: Escherichia coli; test: Antimicrobial activity against Escherichia coli assessed as zone of inhibition at 250 ug/ml after 24 hrs by disk diffusion method; format: functional; conditions: read-out: IZ
[25] = test system: Bacillus subtilis; test: Antimicrobial activity against Bacillus subtilis; format: functional
[26] = test system: Proteus vulgaris; test: Antimicrobial activity against Proteus vulgaris; format: functional
[27] = test system: Salmonella typhimurium; test: Antimicrobial activity against Salmonella typhimurium; format: functional, Salmonella enterica subsp. enterica serovar Typhimurium; conditions: Salmonella enterica
[28] = test system: Streptococcus pneumoniae; test: Antimicrobial activity against Streptococcus pneumoniae; format: functional
[29] = test system: Proteus mirabilis; test: Antimicrobial activity against Proteus mirabilis; format: functional
[30] = test system: Prescottella equi; test: Antimicrobial activity against Rhodococcus equi; format: functional; conditions: Rhodococcus (subgen. Prescottella) equi
[31] = test system: Bacillus thuringiensis; test: Antimicrobial activity against Bacillus thuringiensis; format: functional

| Structure (SMILES) | MIC [1] | MIC [2] | MIC [3] | MIC [4] | MIC [5] | MIC [6] | MIC [7] | MIC [8] | MIC [9] | MIC [10] | MIC [11] | MIC [16] | MIC [17] | zone of inhibition at 250 µg/mL [18] | zone of inhibition at 250 µg/mL [19] | zone of inhibition at 250 µg/mL [20] | zone of inhibition at 250 µg/mL [21] | zone of inhibition at 250 µg/mL [22] | zone of inhibition at 250 µg/mL [23] | zone of inhibition at 250 µg/mL [24] | other results |
| --- | --- | --- | --- | --- | --- | --- | --- | --- | --- | --- | --- | --- | --- | --- | --- | --- | --- | --- | --- | --- | --- |
| OC(Cn1cncn1)(Cn1cncn1)c1ccc(F)cc1F [FLUCONAZOLE] | 25 µg/mL (≈ 81.6 µM) | 25 µg/mL (≈ 81.6 µM) | 25 µg/mL (≈ 81.6 µM) | 25 µg/mL (≈ 81.6 µM) | 1 to 256 µg/mL (≈ 3.27 to 836 µM) | 1 to 256 µg/mL (≈ 3.27 to 836 µM) | 1 to 256 µg/mL (≈ 3.27 to 836 µM) | 1 to 256 µg/mL (≈ 3.27 to 836 µM) | 1 to 256 µg/mL (≈ 3.27 to 836 µM) | 1 to 256 µg/mL (≈ 3.27 to 836 µM) | 1 to 256 µg/mL (≈ 3.27 to 836 µM) | 25 µg/mL (≈ 81.6 µM) | – | – | – | – | – | – | – | – | MIC [12]: 1 to 256 µg/mL (≈ 3.27 to 836 µM); MIC [13]: 1 to 256 µg/mL (≈ 3.27 to 836 µM); MIC [14]: 1 to 256 µg/mL (≈ 3.27 to 836 µM); MIC [15]: 1 to 256 µg/mL (≈ 3.27 to 836 µM) |
| Clc1ccc(-c2nnnn2-c2nc3ccccc3s2)cc1 | 50 to 100 µg/mL (≈ 159 to 319 µM) | 50 to 100 µg/mL (≈ 159 to 319 µM) | 50 to 100 µg/mL (≈ 159 to 319 µM) | 50 to 100 µg/mL (≈ 159 to 319 µM) | – | – | – | – | – | – | – | 50 to 100 µg/mL (≈ 159 to 319 µM) | 50 to 100 µg/mL (≈ 159 to 319 µM) | 16 to 26 mm | 16 to 26 mm | 16 to 26 mm | 16 to 26 mm | 16 to 26 mm | 16 to 26 mm | 18 to 26 mm | – |
| Cc1cc(=O)oc2cc(OCC(O)Cn3cnnn3)cc(OCC(O)Cn3cnnn3)c12 (stereo not drawn) | – | – | – | – | 32 to 512 µg/mL (≈ 72 to 1150 µM) | 32 to 512 µg/mL (≈ 72 to 1150 µM) | 32 to 512 µg/mL (≈ 72 to 1150 µM) | 32 to 512 µg/mL (≈ 72 to 1150 µM) | 32 to 512 µg/mL (≈ 72 to 1150 µM) | 32 to 512 µg/mL (≈ 72 to 1150 µM) | 32 to 512 µg/mL (≈ 72 to 1150 µM) | – | – | – | – | – | – | – | – | – | MIC [12]: 32 to 512 µg/mL (≈ 72 to 1150 µM); MIC [13]: 32 to 512 µg/mL (≈ 72 to 1150 µM); MIC [14]: 32 to 512 µg/mL (≈ 72 to 1150 µM); MIC [15]: 32 to 512 µg/mL (≈ 72 to 1150 µM) |
| O=[N+]([O-])c1cccc(-c2nnnn2-c2nc3ccccc3s2)c1 | 50 to 100 µg/mL (≈ 154 to 308 µM) | 50 to 100 µg/mL (≈ 154 to 308 µM) | 50 to 100 µg/mL (≈ 154 to 308 µM) | 50 to 100 µg/mL (≈ 154 to 308 µM) | – | – | – | – | – | – | – | 50 to 100 µg/mL (≈ 154 to 308 µM) | 50 to 100 µg/mL (≈ 154 to 308 µM) | 16 to 26 mm | 16 to 26 mm | 16 to 26 mm | 16 to 26 mm | 16 to 26 mm | 16 to 26 mm | 18 to 26 mm | – |
| O=[N+]([O-])c1ccc(-c2nnnn2-c2nc3ccccc3s2)cc1 | 50 to 100 µg/mL (≈ 154 to 308 µM) | 50 to 100 µg/mL (≈ 154 to 308 µM) | 50 to 100 µg/mL (≈ 154 to 308 µM) | 50 to 100 µg/mL (≈ 154 to 308 µM) | – | – | – | – | – | – | – | 50 to 100 µg/mL (≈ 154 to 308 µM) | 50 to 100 µg/mL (≈ 154 to 308 µM) | 16 to 26 mm | 16 to 26 mm | 16 to 26 mm | 16 to 26 mm | 16 to 26 mm | 16 to 26 mm | 18 to 26 mm | – |
| Cc1nnc(SCC2=C(C(=O)O)N3C(=O)[C@@H](NC(=O)Cn4cnnn4)[C@H]3SC2)s1 [CEFAZOLIN] | – | – | – | – | – | – | – | – | – | – | – | – | – | – | – | – | – | – | – | – | MIC [25]: 0.063 to 8 µg/mL (≈ 0.139 to 17.6 µM); MIC [26]: 0.063 to 8 µg/mL (≈ 0.139 to 17.6 µM); MIC [27]: 0.063 to 8 µg/mL (≈ 0.139 to 17.6 µM); MIC [28]: 0.063 to 8 µg/mL (≈ 0.139 to 17.6 µM); MIC [29]: 0.063 to 8 µg/mL (≈ 0.139 to 17.6 µM); MIC [30]: 0.063 to 8 µg/mL (≈ 0.139 to 17.6 µM); MIC [31]: 0.063 to 8 µg/mL (≈ 0.139 to 17.6 µM) |
